According to patent US20260191845A1, “PYRIDINE-2-THIOL 1-OXIDE DERIVATIVES AND THEIR USE FOR TREATMENT OF MAMMALIAN INFECTIONS CAUSED BY MYCOBACTERIUM OR FUNGI” (priority 2022, published 2026):
In brackets after ≈: the same amount, converted by molar mass. Read-outs that look alike come from different tables or passages of the source.

Columns and labels:
[1] = tested on: Sporobolomyces salmonicolor; assay: Antifungal agar well diffusion assay; conditions: 20 μL water solution in 4 mm well
Protocol: (§1) The well diffusion test was performed using Casitone agar. The inoculum used was prepared using the Candida or Aspergillus strains from a 24-hour culture on Sabouraud dextrose agar, a suspension was made in a sterile saline solution (0.85%). The turbidity of the suspension was adjusted with a spectrophotometer at 530 nm to obtain a final concentration to match that of a 0.5 McFarland standard (0.5-2.5×10^3). 20 mL of Bacto-casitone were melted, cooled to 55° C. and then inoculated with 1 mL of the organism suspension. The inoculated agar was poured into the assay plate (9 cm in diameter) and allowed to cool down on a leveled surface.

Candida albicans H8 = assay: Antifungal agar well diffusion assay; conditions: 20 μL water solution in 4 mm well
Protocol: as §1

Penicillium notatum = assay: Antifungal agar well diffusion assay; conditions: 20 μL water solution in 4 mm well
Protocol: as §1

Aspergillus niger = assay: Antifungal agar well diffusion assay; conditions: 20 μL water solution in 4 mm well
Protocol: as §1

[2] = tested on: Mycobacterium abscessus ATCC 19977; assay: REMA MIC90 against M. abscessus ATCC 19977; type: cell-based; conditions: Mycobacteroides abscessus
Protocol: Briefly, serial 2-fold dilutions of drug are prepared in 96-well microtiter plates (Fluoronunc, Thermo Fisher, Waltham, MA, USA) in 100 μL of Middlebrook 7H9 medium (Difco), supplemented with 10% OADC without addition of Tween 80. Then, M. abscessus log-phase cultures were diluted (OD600=0.02) and added in the 96-well microtiter plate. Growth controls containing no compound and sterile controls without inoculum are also included. […] After 1 day of incubation at 37° C., 10 μL of resazurin (0.025% w/v) is added to each well, and bacterial viability is assessed after a further 24 h of incubation using a Fluoroskan™ Microplate Fluorometer (Thermo Fisher Scientific, Waltham, MA, USA; excitation=544 nm, emission=590 nm). […] Results are expressed as the average of at least three independent replicates and presented on the following Table 1.

[3] = ATCC19977, MIC90, REMA, Table 1, read-out: MIC in M. abscessus ATCC 19977
[4] = ATCC19977, read-out: MIC in M. abscessus ATCC 19977

Row | Compound | Inhibition Zone of Test Microorganism [1] [mm] | Inhibition Zone of Test Microorganism (Candida albicans H8) [mm] | Inhibition Zone of Test Microorganism (Penicillium notatum) [mm] | Inhibition Zone of Test Microorganism (Aspergillus niger) [mm] | MIC [2, 3] [µg/mL] | MIC [2, 4] [µg/mL]
1 | C[C@@H]1[C@H](O)[C@@H](C)/C=C/C=C/C=C/C=C/C=C/C=C/C=C/[C@H](O[C@@H]2O[C@H](C)[C@@H](O)[C@H](N)[C@@H]2O)C[C@@H]2O[C@](O)(C[C@@H](O)C[C@@H](O)[C@H](O)CC[C@@H](O)C[C@@H](O)CC(=O)O[C@H]1C)C[C@H](O)[C@H]2C(=O)O [Amph. B, reference compound] | 15 | 22 | 12 | 17 | – | –
2 | CCOC(=O)c1ccc(S)[n+]([O-])c1 [Compound 1, Ethyl 6-mercaptonicotinate 1-oxide] | 43 | 56 | 17 | 26 | 125 (≈ 627 µM) | –
3 | COC(=O)c1ccc(S)[n+]([O-])c1 [Compound 3, Methyl 6-mercaptonicotinate 1-oxide] | – | – | – | – | 250 (≈ 1350 µM) | –
4 | COC(=O)c1ccc([S-])[n+]([O-])c1.[Na+] [Compound 4, Sodium 5-(methoxycarbonyl)pyridine-2-thiolate 1-oxide] | – | – | – | – | 250 | –
5 | [Na+].[O-][n+]1cc(C(F)(F)F)ccc1[S-] [Compound 5, Sodium 5-(trifluoromethyl)pyridine-2-thiolate 1-oxide] | 40 | 49 | 15 | 22 | – | 250
6 | NC(=O)c1ccc([S-])[n+]([O-])c1.[K+] [Compound 6, Potassium 5-(aminocarbonyl)pyridine-2-thiolate 1-oxide] | – | – | – | – | – | 500
7 | O=C(c1ccc([S-])[n+]([O-])c1)N1CCCCC1.[K+] [Compound 7, Potassium 5-(piperidin-1-ylcarbonyl)pyridine-2-thiolate 1-oxide] | 43 | 52 | 15 | 23 | – | 1000
8 | CN(C)C(=O)c1ccc(S)[n+]([O-])c1 [Compound 8, 6-Mercapto-N,N-dimethylnicotinamide 1-oxide] | – | – | – | – | 500 (≈ 2520 µM) | –
9 | CN(C)C(=O)c1ccc([S-])[n+]([O-])c1.[Na+] [Compound 9, Sodium 5-[(dimethylamino)carbonyl]pyridine-2-thiolate 1-oxide] | – | – | – | – | 500 | –
10 | CC(C)OC(=O)c1ccc([S-])[n+]([O-])c1.[Na+] [Compound 10, Sodium 5-(isopropoxycarbonyl)pyridine-2-thiolate 1-oxide] | – | – | – | – | 500 | –
